Data as given in PubChem BioAssay AID248 (DTP/NCI, 2004).
“And” between values parts separate entries of the source, which are not always exact repeats. Equal entries are not always repeated. Toxic doses and inconclusive results are not listed. Cut-off read from the data, not from the text of the source: active = T/C of 150% or more; inactive = T/C below 125%. Square brackets hold non-standard residues; d marks the D form. Peptide text beside a SMILES is read from it. Sar = CNCC(=O)O

Tested on: L1210 leukemia ip in BDF1 mice, survival T/C
Assay: NCI In Vivo Anticancer Drug Screen. Data for tumor model L1210 Leukemia (intraperitoneal) in B6D2F1 (BDF1) mice
Conditions: endpoint: mean survival time, higher = longer survival
In short: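 Ratio derived from survival: compound-dosed mice over vehicle-dosed mice, all bearing a transplantable tumor.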

[1] = dose: 50.0 mg/kg/injection, schedule: Q01DX001 (ip), vehicle: carboxymethylcellulose (CMC)
[2] = dose: 100.0 mg/kg/injection, schedule: Q01DX009 (ip), vehicle: Klucel (hydroxypropylcellulose) (HPC)
[3] = dose: 100.0 mg/kg/injection, schedule: Q04DX002 (ip), vehicle: Klucel (hydroxypropylcellulose) (HPC)
[4] = dose: 200.0 mg/kg/injection, schedule: Q04DX002 (ip), vehicle: Klucel (hydroxypropylcellulose) (HPC)
[5] = dose: 100.0 mg/kg/injection, schedule: Q04DX003 (ip), vehicle: Klucel (hydroxypropylcellulose) (HPC)
[6] = dose: 200.0 mg/kg/injection, schedule: Q04DX003 (ip), vehicle: Klucel (hydroxypropylcellulose) (HPC)
[7] = dose: 400.0 mg/kg/injection, schedule: Q04DX003 (ip), vehicle: Klucel (hydroxypropylcellulose) (HPC)
[8] = dose: 100.0 mg/kg/injection, schedule: Q04DX003 (ip), vehicle: saline
[9] = dose: 200.0 mg/kg/injection, schedule: Q04DX003 (ip), vehicle: saline
[10] = dose: 400.0 mg/kg/injection, schedule: Q04DX003 (ip), vehicle: saline
[11] = dose: 100.0 mg/kg/injection, schedule: Q01DX009 (ip), vehicle: saline with Tween-80
[12] = dose: 200.0 mg/kg/injection, schedule: Q01DX009 (ip), vehicle: saline with Tween-80
[13] = dose: 400.0 mg/kg/injection, schedule: Q01DX009 (ip), vehicle: saline with Tween-80
[14] = dose: 50.0 mg/kg/injection, schedule: Q01DX001 (ip), vehicle: saline
[15] = dose: 100.0 mg/kg/injection, schedule: Q01DX001 (ip), vehicle: saline
[16] = dose: 200.0 mg/kg/injection, schedule: Q01DX001 (ip), vehicle: saline
[17] = dose: 400.0 mg/kg/injection, schedule: Q01DX001 (ip), vehicle: saline
[18] = dose: 100.0 mg/kg/injection, schedule: Q01DX001 (ip), vehicle: carboxymethylcellulose (CMC)
[19] = dose: 200.0 mg/kg/injection, schedule: Q01DX001 (ip), vehicle: carboxymethylcellulose (CMC)
[20] = dose: 400.0 mg/kg/injection, schedule: Q01DX001 (ip), vehicle: carboxymethylcellulose (CMC)
[21] = dose: 100.0 mg/kg/injection, schedule: Q01DX001 (ip), vehicle: Klucel (hydroxypropylcellulose) (HPC)
[22] = dose: 200.0 mg/kg/injection, schedule: Q01DX001 (ip), vehicle: Klucel (hydroxypropylcellulose) (HPC)
[23] = dose: 400.0 mg/kg/injection, schedule: Q01DX001 (ip), vehicle: Klucel (hydroxypropylcellulose) (HPC)
[24] = dose: 400.0 mg/kg/injection, schedule: Q01DX009 (ip), vehicle: Klucel (hydroxypropylcellulose) (HPC)
[25] = dose: 100.0 mg/kg/injection, schedule: Q04DX003 (ip), vehicle: saline with Tween-80
[26] = dose: 200.0 mg/kg/injection, schedule: Q04DX003 (ip), vehicle: saline with Tween-80
[27] = dose: 400.0 mg/kg/injection, schedule: Q04DX003 (ip), vehicle: saline with Tween-80

Measured: T/C

O=c1[nH]cnc2nncnc12
inactive: [1] 93 % of control

CCN(CC)CCCN1C(=O)c2ccccc2S1(=O)=O
inactive: dose: 44.0 mg/kg/injection, schedule: Q01DX Z (ip), vehicle: saline 102 % of control | dose: 66.0 mg/kg/injection, schedule: Q01DX Z (ip), vehicle: saline 102 % of control | dose: 100.0 mg/kg/injection, schedule: Q01DX Z (ip), vehicle: saline 108 % of control

O=C(N1CCCCC1)C(Cl)(Cl)Cl
inactive: dose: 50.0 mg/kg/injection, schedule: Q01DX009 (ip), vehicle: Klucel (hydroxypropylcellulose) (HPC) 98 % of control | [2] 88 % of control | [3] 92 % of control | [4] 110 % of control

CCCCCCCCCCCCCCCCCCCCCCCCCCCCCC
inactive: [5] 93 % of control | [6] 89 % of control | [7] 89 % of control

CN(CC(=O)O)C(=O)CN (H-Gly-[Sar]-OH)
inactive: dose: 25.0 mg/kg/injection, schedule: Q04DX002 (ip), vehicle: saline 113 % of control | dose: 50.0 mg/kg/injection, schedule: Q04DX002 (ip), vehicle: saline 97 % of control | dose: 100.0 mg/kg/injection, schedule: Q04DX002 (ip), vehicle: saline 103 % of control

CCOCc1cnc(C)nc1N
inactive: dose: 100.0 mg/kg/injection, schedule: Q01DX001 (ip), vehicle: saline with Tween-80 94 % of control | dose: 200.0 mg/kg/injection, schedule: Q01DX001 (ip), vehicle: saline with Tween-80 94 % of control

CN1CCC=Cc2ccccc21
inactive: dose: 100.0 mg/kg/injection, schedule: Q01DX009 (ip), vehicle: saline 97 % of control | [8] 92 % of control | [9] 95 % of control | [10] 90 % of control

O=C(O)CNC(CSCc1ccccc1)CSCc1ccccc1
inactive: dose: 25.0 mg/kg/injection, schedule: Q01DX009 (ip), vehicle: saline with Tween-80 101 % of control | dose: 50.0 mg/kg/injection, schedule: Q01DX009 (ip), vehicle: saline with Tween-80 106 % of control | [11] 90 % of control | [12] 97 % of control | [13] 103 % of control

COc1ccc2c(c1)CCC1CC(=O)C=C21 (stereo unspecified)
inactive: dose: 100.0 mg/kg/injection, schedule: Q01DX009 (ip), vehicle: saline sonified 113 % of control | dose: 200.0 mg/kg/injection, schedule: Q01DX009 (ip), vehicle: saline sonified 103 % of control | dose: 400.0 mg/kg/injection, schedule: Q01DX009 (ip), vehicle: saline sonified 104 % of control

S=c1nc[nH]c2c1ncn2C1OC(COCc2ccccc2)C(OCc2ccccc2)C1OCc1ccccc1 (stereo unspecified)
inactive: [14] 93 % of control | [15] 102 % of control | [16] 93 % of control | [17] 96 % of control

COc1ccc(-c2cc(Cl)c([N+](=O)[O-])cc2[N+](=O)[O-])cc1
inactive: [1] 100 % of control | [18] 107 % of control | [19] 110 % of control | [20] 102 % of control

O=c1[nH]cnc2nccnc12
inactive: dose: 25.0 mg/kg/injection, schedule: Q04DX003 (ip), vehicle: saline 100 % of control | dose: 50.0 mg/kg/injection, schedule: Q04DX003 (ip), vehicle: saline 101 % of control | [8] 88 % of control | [9] 90 % of control

COc1cc(NC(=O)Nc2cc(Cl)ccc2C)c(OC)cc1Cl
inactive: [21] 97 % of control | [2] 94 % of control and 88 % of control | [3] 104 % of control | [5] 103 % of control | [22] 103 % of control | dose: 200.0 mg/kg/injection, schedule: Q01DX009 (ip), vehicle: Klucel (hydroxypropylcellulose) (HPC) 87 % of control and 90 % of control | [4] 98 % of control | [6] 101 % of control | [23] 95 % of control | [24] 88 % of control | dose: 400.0 mg/kg/injection, schedule: Q04DX002 (ip), vehicle: Klucel (hydroxypropylcellulose) (HPC) 89 % of control | [7] 92 % of control

CCCNS(=O)(=O)c1ccc(C(N)=S)cc1
inactive: [21] 103 % of control | [22] 108 % of control | [23] 98 % of control

CC(=O)[O][Hg][c]1cc(C)c(O)c([N+](=O)[O-])c1
inactive: dose: 1.56 mg/kg/injection, schedule: Q04DX003 (ip), vehicle: Klucel (hydroxypropylcellulose) (HPC) 105 % of control | dose: 3.12 mg/kg/injection, schedule: Q01DX009 (ip), vehicle: Klucel (hydroxypropylcellulose) (HPC) 95 % of control | dose: 3.12 mg/kg/injection, schedule: Q04DX003 (ip), vehicle: Klucel (hydroxypropylcellulose) (HPC) 115 % of control | dose: 6.25 mg/kg/injection, schedule: Q01DX009 (ip), vehicle: Klucel (hydroxypropylcellulose) (HPC) 96 % of control | dose: 6.25 mg/kg/injection, schedule: Q04DX003 (ip), vehicle: Klucel (hydroxypropylcellulose) (HPC) 117 % of control | dose: 12.5 mg/kg/injection, schedule: Q04DX003 (ip), vehicle: Klucel (hydroxypropylcellulose) (HPC) 109 % of control

CC(=O)N1C=C(Br)c2ccccc2C1C1c2ccccc2C(Br)=CN1C(C)=O (stereo unspecified)
inactive: [25] 91 % of control | [26] 87 % of control | [27] 91 % of control

O=Nc1nc2ncccn2c1-c1ccccc1
inactive: [14] 97 % of control | [15] 101 % of control | [16] 103 % of control | [17] 109 % of control

N#CNC(=S)S
inactive: [8] 105 % of control | [9] 93 % of control | [10] 104 % of control

CC(=O)OCCC/C(=C\c1ccc2ccccc2c1)[N+](=O)[O-]
inactive: [18] 98 % of control | [19] 93 % of control | [20] 89 % of control

CCOC(=O)CC1(C)NC(C(=O)O)C(C)(C)S1 (stereo unspecified)
inactive: [2] 97 % of control | [24] 97 % of control

CCCCCCCCCCCCC(CCCCCCCCCCCC)C1CCCCC1
inactive: [15] 102 % of control | [16] 104 % of control | [17] 95 % of control

CC(=O)NC(C(=O)O)C(C)C(=O)O (stereo unspecified)
inactive: [8] 90 % of control | [9] 93 % of control | [10] 92 % of control

CCn1c(N)c(N)c(=O)[nH]c1=S
inactive: [25] 86 % of control | [26] 93 % of control | [27] 86 % of control

CCC(=O)Nc1cccc(OC(=O)NCC(C)C)c1
inactive: [11] 92 % of control | [12] 94 % of control | [13] 91 % of control

N#Cc1cccc(NC(=O)COc2cccc(Cl)c2)c1
inactive: [21] 94 % of control | [22] 87 % of control | [23] 90 % of control
